According to patent US11033535B2, “Oxadiazoles and thiadiazoles as TGF-β inhibitors” (Southern Research Institute, priority 2017, dated 2021):
Counter-ions that a name gives are not always drawn.

Molecular target: (Homo sapiens, UniProt P07996)
Assay: Secondary Assay, inhibitory activity of thiadiazole and oxadiazole analogs as TGF-beta inhibitors
Assay type: biochemical
Conditions: Table I
Procedure: A summary of the inhibitory activity of representative thiadiazole analogs (Tables i and ii) and oxadiazole analogs (Table ii) is shown below.
(§1) For initial screening, an ELISA-based screening assay was used in which purified human platelet TSP-1 was incubated with compounds and then incubated with recombinant latent TGF-β1 (purchased from R&D Systems). Activity is measured in a commercially available ELISA which detects only active TGF-β (R &D Systems). Activity in the presence of compounds is compared to activity in TSP-1+latent TGF-β samples without inhibitory compounds (Lu et al. (2016) Am J Pathol 186:678-690).
To specifically assess activity of compounds in liver cell specific assays, two different assays were used. In the first, human hepatic stellate cells were incubated overnight in low serum media to condition the media with secreted latent TGF-β. Purified TSP1 either pre-incubated with compounds or not will be added to cultures and then conditioned media harvested to assess TGF-β biological activity using the R&D Systems ELISA as above. Hepatic stellate cells will be purchased from commercial sources. Although hepatic stellate cells are the primary drivers of liver fibrosis, conditions which drive liver fibrosis can induce hepatocyte TSP-1 expression which can then have paracrine effects on controlling TGF-β activation in hepatic stellate cells. Furthermore, TGF-β can negatively impact hepatocyte regeneration following injury. Therefore, the ability of compounds to block TSP-1 activation of latent TGF-β will also be assessed in cultured primary human hepatocytes following the protocol described for the hepatic stellate cells. Similar approaches have successfully been used to screen compounds which inhibit human myeloma cell derived latent TGF-β activation by TSP-1 (Lu et al. (2016) Am J Pathol 186:678-690).
Target sequence in this assay (P07996 whole entry): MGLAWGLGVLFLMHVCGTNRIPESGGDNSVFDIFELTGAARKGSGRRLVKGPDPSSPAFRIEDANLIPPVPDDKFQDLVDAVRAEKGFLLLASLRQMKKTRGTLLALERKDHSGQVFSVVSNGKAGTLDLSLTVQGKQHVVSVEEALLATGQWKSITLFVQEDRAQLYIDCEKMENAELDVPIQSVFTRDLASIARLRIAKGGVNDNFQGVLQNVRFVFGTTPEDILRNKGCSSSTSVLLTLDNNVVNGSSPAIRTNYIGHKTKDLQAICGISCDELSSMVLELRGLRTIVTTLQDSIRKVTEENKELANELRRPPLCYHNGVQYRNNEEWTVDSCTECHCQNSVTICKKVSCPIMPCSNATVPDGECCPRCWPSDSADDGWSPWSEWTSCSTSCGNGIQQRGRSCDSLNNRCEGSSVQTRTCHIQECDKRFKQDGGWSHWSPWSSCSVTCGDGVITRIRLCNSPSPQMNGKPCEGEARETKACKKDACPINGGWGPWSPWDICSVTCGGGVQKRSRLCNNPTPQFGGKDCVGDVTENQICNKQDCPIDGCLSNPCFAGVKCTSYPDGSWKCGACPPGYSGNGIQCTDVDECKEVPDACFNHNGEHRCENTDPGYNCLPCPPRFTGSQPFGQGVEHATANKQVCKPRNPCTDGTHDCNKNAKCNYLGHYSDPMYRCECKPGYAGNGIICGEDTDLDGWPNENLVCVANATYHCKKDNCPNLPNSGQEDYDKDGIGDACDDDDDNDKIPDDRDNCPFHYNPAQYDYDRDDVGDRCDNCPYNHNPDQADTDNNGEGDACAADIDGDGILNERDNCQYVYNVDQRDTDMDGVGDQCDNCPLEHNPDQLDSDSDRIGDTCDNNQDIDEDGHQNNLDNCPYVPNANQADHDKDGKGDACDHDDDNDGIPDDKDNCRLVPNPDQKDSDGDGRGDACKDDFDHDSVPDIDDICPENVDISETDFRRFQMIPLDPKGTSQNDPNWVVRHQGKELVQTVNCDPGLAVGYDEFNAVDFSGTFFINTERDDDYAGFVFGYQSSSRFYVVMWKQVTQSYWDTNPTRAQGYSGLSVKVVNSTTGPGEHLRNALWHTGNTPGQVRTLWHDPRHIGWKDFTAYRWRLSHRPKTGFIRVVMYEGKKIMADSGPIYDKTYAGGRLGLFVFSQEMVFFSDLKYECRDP

SMILES | IC50
CC(=O)NC(Cc1ccc(CN)cc1)c1nnc(-c2cccc(OC(F)(F)F)c2)s1 (racemic) [Compound 41791] | 0.061 µM
CC(=O)N[C@@H](Cc1ccc(CN)cc1)c1nnc(-c2cccc(OC(F)(F)F)c2)s1 (single isomer, unassigned) [Compound 41891] | 0.026 µM
CC(=O)N[C@H](Cc1ccc(CN)cc1)c1nnc(-c2cccc(OC(F)(F)F)c2)s1 (single isomer, unassigned) [Compound 41892] | 0.0269 µM
CC(=O)NC(Cc1ccc(CN)cc1)c1nnc(-c2ccncc2)s1 (centres unmarked) [Compound 39245, N-(2-(4-(aminomethyl)phenyl)-1-(5-(pyridin-4-yl)-1,3,4-thiadiazol-2-yl)ethyl)acetamide] | 0.033 µM
CC(=O)NC(Cc1ccc(N)cc1)c1nnc(-c2cccc(OC(F)(F)F)c2)s1 (centres unmarked) [Compound 39999, N-(2-(4-aminophenyl)-1-(5-(3-(trifluoromethoxy)phenyl)-1,3,4-thiadiazol-2-yl)ethyl)acetamide] | 0.015 µM
CC(=O)NC(Cc1ccc(CN)cc1)c1nnc(-c2cccc(OC(F)(F)F)c2)s1 (centres unmarked) [Compound 40000, N-(2-(4-(aminomethyl)phenyl)-1-(5-(3-(trifluoromethoxy)phenyl)-1,3,4-thiadiazol-2-yl)ethyl)acetamide] | 0.028 µM
CC(=O)NC(Cc1ccc(CN)cc1)c1nnc(-c2ccc(F)cc2)s1 (centres unmarked) [Compound 40051, N-(2-(4-(aminomethyl)phenyl)-1-(5-(4-fluorophenyl)-1,3,4-thiadiazol-2-yl)ethyl)acetamide] | 0.049 µM
CC(=O)NC(Cc1ccc(CN)cc1)c1nnc(-c2cc(C(F)(F)F)cc(C(F)(F)F)c2)s1 (centres unmarked) [Compound 40653, N-(2-(4-(aminomethyl)phenyl)-1-(5-(3,5-bis(trifluoromethyl)phenyl)-1,3,4-thiadiazol-2-yl)ethyl)acetamide] | 0.039 µM
COc1cccc(-c2nnc(C(Cc3ccc(CN)cc3)NC(C)=O)s2)c1 (centres unmarked) [Compound 41149, N-(2-(4-(aminomethyl)phenyl)-1-(5-(3-methoxyphenyl)-1,3,4-thiadiazol-2-yl)ethyl)acetamide hydrochloride] | 0.183 µM
CC(=O)NC(Cc1ccc(CN)cc1)c1nnc(-c2cccc(C(F)(F)F)c2)s1 (centres unmarked) [Compound 41152, N-(2-(4-(aminomethyl)phenyl)-1-(5-(3-(trifluoromethyl)phenyl)-1,3,4-thiadiazol-2-yl)ethyl)acetamide hydrochloride] | 0.009 µM
COc1cc(-c2nnc(C(Cc3ccc(CN)cc3)NC(C)=O)s2)cc(C(F)(F)F)c1 (centres unmarked) [Compound 42330, N-(2-(4-(aminomethyl)phenyl)-1-(5-(3-methoxy-5-(trifluoromethyl)phenyl)-1,3,4-thiadiazol-2-yl)ethyl)acetamide] | 0.006 µM
CC(=O)N(C)C(Cc1ccc(CN)cc1)c1nnc(-c2cccc(OC(F)(F)F)c2)s1 (centres unmarked) [Compound 42335, N-(2-(4-(aminomethyl)phenyl)-1-(5-(3-(trifluoromethoxy)phenyl)-1,3,4-thiadiazol-2-yl)ethyl)-N-methylacetamide Hydrochloride] | 0.03 µM
NCc1cccc(CC(NC(=O)C2CCCCC2)c2nnc(-c3cccc(OC(F)(F)F)c3)s2)c1 (centres unmarked) [Compound 42461, N-(2-(3-(aminomethyl)phenyl)-1-(5-(3-(trifluoromethoxy)phenyl)-1,3,4-thiadiazol-2-yl)ethyl)cyclohexanecarboxamide] | 0.005 µM
NCc1cccc(CC(NC(=O)C2CC2)c2nnc(-c3cccc(OC(F)(F)F)c3)s2)c1 (centres unmarked) [Compound 42468, N-(2-(3-(aminomethyl)phenyl)-1-(5-(3-(trifluoromethoxy)phenyl)-1,3,4-thiadiazol-2-yl)ethyl)cyclopropanecarboxamide] | 0.008 µM
CC(=O)NC(Cc1ccc(CN)cc1)c1nnc(-c2cc(C)cc(OC(F)(F)F)c2)s1 (centres unmarked) [Compound 42470] | 0.008 µM
COc1cc(C)cc(-c2nnc(C(Cc3ccc(CN)cc3)NC(C)=O)s2)c1 (centres unmarked) [Compound 42473] | 0.008 µM

Same assay, conditions: Table II

SMILES | IC50
CC(=O)NC(CCCCN)c1nnc(C2CCCCC2)s1 (centres unmarked) [Compound 39139, N-(5-Amino-1-(5-cyclohexyl-1,3,4-thiadiazol-2-yl)pentyl)acetamide] | 0.013 µM
CC(=O)NC(CCCCN)c1nnc(-c2ccc(F)cc2)s1 (centres unmarked) [Compound 39261, N-(5-Amino-1-(5-(4-fluorophenyl)-1,3,4-thiadiazol-2-yl)pentyl)acetamide] | 0.324 µM

Same assay, conditions: Table II, cells that print μM

SMILES | IC50
CC(=O)NC(CCCCN)c1nnc(-c2ccc(F)cc2F)s1 (centres unmarked) [Compound 39425, N-(5-Amino-1-(5-(2,4-difluorophenyl)-1,3,4-thiadiazol-2-yl)pentyl)acetamide] | > 1 µM
CC(=O)NC(CCCCN)c1nnc(-c2ccncc2)o1 (centres unmarked) [Compound 40074, N-(5-Amino-1-(5-(pyridin-4-yl)-1,3,4-oxadiazol-2-yl)pentyl)acetamide] | > 1 µM

Molecular target: (Homo sapiens, UniProt P07996)
Assay: ELISA based assays of TSP1 activation of latent TGF-β (purified protein components or TSP1-treated cell conditioned media)
Assay type: biochemical
Design: purchased R&D Systems
Conditions: at 1 pm
Procedure: Compound 35 was evaluated for its ability to inhibit TGF-β in both ELISA based assays with purified protein components (latent TGFβ and TSP1 or in TSP1-treated cell conditioned media).
Target sequence in this assay (P07996 19-1170): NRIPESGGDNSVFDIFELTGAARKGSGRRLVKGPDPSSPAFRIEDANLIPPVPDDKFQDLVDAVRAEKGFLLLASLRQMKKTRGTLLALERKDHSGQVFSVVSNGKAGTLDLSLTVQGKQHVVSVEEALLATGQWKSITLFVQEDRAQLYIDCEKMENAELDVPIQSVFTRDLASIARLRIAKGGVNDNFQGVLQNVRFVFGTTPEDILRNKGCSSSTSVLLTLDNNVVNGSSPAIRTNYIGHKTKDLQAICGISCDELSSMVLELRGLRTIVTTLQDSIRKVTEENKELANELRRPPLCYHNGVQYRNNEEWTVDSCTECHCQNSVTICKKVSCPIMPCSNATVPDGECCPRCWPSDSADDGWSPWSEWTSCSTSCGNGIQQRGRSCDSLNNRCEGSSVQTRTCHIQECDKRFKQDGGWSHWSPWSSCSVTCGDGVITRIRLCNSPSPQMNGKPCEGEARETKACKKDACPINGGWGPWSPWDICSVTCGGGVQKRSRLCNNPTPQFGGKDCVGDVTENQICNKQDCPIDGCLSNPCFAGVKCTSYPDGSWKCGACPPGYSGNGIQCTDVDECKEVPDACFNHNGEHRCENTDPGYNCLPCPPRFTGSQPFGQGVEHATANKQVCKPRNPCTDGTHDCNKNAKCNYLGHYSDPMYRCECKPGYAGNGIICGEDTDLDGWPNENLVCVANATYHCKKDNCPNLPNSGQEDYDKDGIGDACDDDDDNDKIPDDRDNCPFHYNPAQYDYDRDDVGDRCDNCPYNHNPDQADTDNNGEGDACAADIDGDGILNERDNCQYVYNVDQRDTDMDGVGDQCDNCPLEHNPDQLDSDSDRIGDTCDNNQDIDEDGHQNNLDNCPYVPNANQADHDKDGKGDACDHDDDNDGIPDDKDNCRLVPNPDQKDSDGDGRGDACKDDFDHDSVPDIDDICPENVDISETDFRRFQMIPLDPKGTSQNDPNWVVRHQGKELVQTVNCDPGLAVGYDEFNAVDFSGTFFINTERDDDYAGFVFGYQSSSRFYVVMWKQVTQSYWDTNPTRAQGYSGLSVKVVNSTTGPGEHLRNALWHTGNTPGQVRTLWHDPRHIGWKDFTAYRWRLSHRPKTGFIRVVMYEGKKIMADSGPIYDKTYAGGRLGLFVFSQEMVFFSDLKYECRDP
as §1

SMILES | inhibition of TGF-β
CC(=O)N[C@@H](CCCCN)c1nnc(-c2ccccc2)s1 [Compound 35, (S)—N-(5-amino-1-(5-phenyl-1,3,4-thiadiazol-2-yl)pentyl)acetamide] | 15%

Same assay, conditions: at 50 pm

SMILES | inhibition of TGF-β
CC(=O)N[C@@H](CCCCN)c1nnc(-c2ccccc2)s1 [Compound 35, (S)—N-(5-amino-1-(5-phenyl-1,3,4-thiadiazol-2-yl)pentyl)acetamide] | 67%

Same assay, conditions: at 100 pm

SMILES | inhibition of TGF-β
CC(=O)N[C@@H](CCCCN)c1nnc(-c2ccccc2)s1 [Compound 35, (S)—N-(5-amino-1-(5-phenyl-1,3,4-thiadiazol-2-yl)pentyl)acetamide] | 67%
